Converted amounts (≈) assume the structure as drawn. Read-outs that look alike come from different tables or passages of the source.
Experiments:
Type in all cases: cell-based
Helicobacter pylori (Hp) = assay: screening of antibacterial components of traditional Chinese drug, MIC against Hp; conditions: monomer alone
Description: The combination of different monomer compositions can resist bacteria, increase the action target of the composition, be conducive to improve the antibacterial effect and reduce the drug resistance of the composition. Therefore, in the present disclosure, according to the quality ratio of Zuojin pills, berberine, evolitrine, and tanshinone I are combined according to a certain quality ratio to inhibit Hp. This combination can synergistically enhance the inhibition of Hp, and is not easy to produce drug resistance, which has an extremely excellent effect on the treatment of Hp infection related diseases.

Helicobacter pylori = assay: Chessboard method, synergistic inhibitory effect of two monomers (FIC); conditions: monomer used alone, 72 hours
Protocol: The compositions 1, 2, 3, 4 and 5 are prepared according to Examples 1, 2, 3, 4 and 5, respectively. • 1.2. Strain • (1) Helicobacter pylori strains: standard strains 26695, NSH57, MSD132 and G27 are presented by Dr. Hongkai Bi of Nanjing Medical University; clinical metronidazole drug-resistant strains, clarithromycin drug-resistant strains, levofloxacin drug-resistant strains, levofloxacin and metronidazole drug-resistant strains, clarithromycin and metronidazole drug-resistant strains, levofloxacin and clarithromycin and metronidazole multi drug-resistant strains (HPBS001, HPBS002, HPBS003, and the like) are provided by the Research Center for the Prevention and Treatment of Drug Resistant Microbial Infections of Youjiang Medical University for Nationalities. • (2) Non Helicobacter pylori strains: Staphylococcus aureus, Escherichia coli, Pseudomonas aeruginosa, Acinetobacter baumannii, Klebsiella pneumoniae, Candida albicans, Enterobacter cloacae, Campylobacter jejuni, Bacillus subtilis, Proteus mirabilis, Lactobacillus campylobacter, Stenotrophomonas maltophilia, Morganella morganii, Candida tropicalis, Staphylococcus haemolyticus, Acetobacter, Saccharomyces cerevisiae, Enterobacter hormaechei well is provided by the Research Center for the Prevention and Treatment of Drug Resistant Microbial Infections of Youjiang Medical University for Nationalities. • 1.3 Main culture media and reagents: Columbia culture medium, Brain Heart Infusion Broth, nutrient agar culture medium, nutrient broth culture medium, MH culture medium, Sabouraud culture medium, standard calf serum. • 1.4 Main instruments: three gas incubator, centrifuge, microplate reader, electronic balance, and the like. • 1.5 Consumable materials: EP tube, tip, centrifuge tube, and the like. • 2. […]

[1] = system: Helicobacter pylori G27 strain; assay: Drug resistance test, induction with 1/4 MIC for 24 days
Description: Note: In 6:1:3 group, “>” refers to greater than 46.1+7. 7+23.1. • 2.4 Drug Resistance Test of Prepared 6:1:3 Composition • (1) The drug resistance of […] is detected with Helicobacter pylori G27 strain.

[2] = Helicobacter pylori, read-out: MIC

| Compound | MIC (Helicobacter pylori (Hp); [2]) [µg/mL] | MIC (Helicobacter pylori; [2]) [µg/mL] | also measured |
| --- | --- | --- | --- |
| COc1ccc2cc3[n+](cc2c1OC)CCc1cc2c(cc1-3)OCO2 [Berberine, berberine] | 16 to 32 | 16 | – |
| COc1ccc2c(OC)c3ccoc3nc2c1 [Evolitrine, evolitrine] | 16 to 32 | 32 | – |
| Cc1coc2c1C(=O)C(=O)c1c-2ccc2c(C)cccc12 [Tanshinone I, tanshinone I] | – | – | MIC (Helicobacter pylori (Hp)): 0.5 to 1 µg/mL; MIC (Helicobacter pylori): Tanshinone I (1 μg/mL) |
| Cc1ncc([N+](=O)[O-])n1CCO [metronidazole] | – | – | MIC ([1]; Helicobacter pylori, G27STRAIN, before induction): 2 µg/mL (≈ 11.7 µM); MIC increase after induction ([1]; after 24 days of induction with 1/4 MIC, FIG. 3): 64 times |

From patent US12310952B2, “Traditional Chinese drug monomer composition for treating Helicobacter pylori, preparation method and use thereof” (YOUJIANG MEDICAL UNIVERSITY FOR NATIONALITIES, priority 2023, dated 2025)
